Experimental findings from ChEMBL document CHEMBL1821713, “Synthesis and in vitro activity of novel 1,2,4-triazolo[4,3-a]pyrimidine oxazolidinone antibacterial agents. Part II” (Bioorg Med Chem Lett, 2011) are described below.

Series [1] concerns Staphylococcus epidermidis. As to the kind of experiment: Antibacterial activity against Staphylococcus epidermidis ATCC 12228 by CLSI method. Type of series: functional.
The next series deals with Enterococcus faecalis. Kind of series: Antibacterial activity against Enterococcus faecalis ATCC 29212 by CLSI method. Format: functional.
Series [2] has as its system Staphylococcus aureus. As to the kind of experiment: Antibacterial activity against Staphylococcus aureus ATCC 25923 by CLSI method. Type of series: functional.
Series [3] deals with Staphylococcus aureus. Kind of series: Antibacterial activity against methicillin-resistant Staphylococcus aureus 43300 by CLSI method. Type of series: functional.
In series [4] the test system is Staphylococcus aureus. Kind of series: Antibacterial activity against Staphylococcus aureus ATCC 49775 PVL positive by CLSI method relative to Linezolid. Format: functional.
For a further series, the system named is Streptococcus pneumoniae. As to the kind of experiment: Antibacterial activity against Streptococcus pneumoniae ATCC 49619 by CLSI method relative to Linezolid. Type of series: functional.
In a further series the target is CYP2D6 (Homo sapiens, UniProt P10635). As to the kind of experiment: Inhibition of human recombinant CYP2D6 at 10 uM by fluorimetric analysis. Type of series: ADME.
The target in the next series is CYP2C19 (Homo sapiens, UniProt P33261). As to the kind of experiment: Inhibition of human recombinant CYP2C19 at 10 uM by fluorimetric analysis. Format: ADME.
The next series concerns the target T1, CYP1A2 (Homo sapiens, UniProt P05177).
T1 sequence (P05177 whole entry): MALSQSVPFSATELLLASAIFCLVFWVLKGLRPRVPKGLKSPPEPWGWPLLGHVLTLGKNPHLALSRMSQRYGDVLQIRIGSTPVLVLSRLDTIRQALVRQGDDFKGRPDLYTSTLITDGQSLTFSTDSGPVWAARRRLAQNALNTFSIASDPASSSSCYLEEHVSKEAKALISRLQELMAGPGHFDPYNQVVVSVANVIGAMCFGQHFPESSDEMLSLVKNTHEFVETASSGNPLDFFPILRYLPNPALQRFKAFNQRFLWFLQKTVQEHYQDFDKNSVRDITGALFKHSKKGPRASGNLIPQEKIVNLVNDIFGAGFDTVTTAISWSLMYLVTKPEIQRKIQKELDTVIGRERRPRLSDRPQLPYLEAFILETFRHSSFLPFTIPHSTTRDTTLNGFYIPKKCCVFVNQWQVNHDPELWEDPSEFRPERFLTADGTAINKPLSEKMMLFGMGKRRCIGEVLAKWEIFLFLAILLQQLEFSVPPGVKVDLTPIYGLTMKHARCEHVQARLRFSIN
As to the kind of experiment: Inhibition of human recombinant CYP1A2 at 10 uM by fluorimetric analysis. Format: ADME.

The next series deals with CYP2C9 (Homo sapiens, UniProt P11712). As to the kind of experiment: Inhibition of recombinant human cytochrome P450-2C9 at 10 uM by fluorimetric analysis. Type of series: ADME.
The test system of series [5] is Staphylococcus epidermidis. As to the kind of experiment: Antibacterial activity against Staphylococcus epidermidis ATCC 12228 by CLSI method relative to Linezolid. Type of series: functional.
A further series concerns the target CYP3A4 (Homo sapiens, UniProt P08684). Kind of series: Inhibition of human recombinant CYP3A4 at 10 uM by fluorimetric analysis. Type of series: ADME.
The subject of series [6] is Staphylococcus aureus. As to the kind of experiment: Antibacterial activity against Staphylococcus aureus FDA 209P by CLSI method relative to Linezolid. Type of series: functional.
Series [7] concerns Staphylococcus aureus. Kind of series: Antibacterial activity against Staphylococcus aureus ATCC 700699 Mu 50 by CLSI method relative to Linezolid. Type of series: functional.
The test system of series [8] is Staphylococcus aureus. Kind of series: Antibacterial activity against Staphylococcus aureus ATCC 29213 by CLSI method relative to Linezolid. Format: functional.
The test system of another series is Streptococcus pyogenes. Kind of series: Antibacterial activity against Streptococcus pyogenes ATCC 19615 by CLSI method relative to Linezolid. Type of series: functional.
The next series concerns Enterococcus faecium. Kind of series: Antibacterial activity against Enterococcus faecium 06076VRE by CLSI method relative to Linezolid. Format: functional.
The subject of series [9] is Staphylococcus epidermidis. Kind of series: Antibacterial activity against Staphylococcus epidermidis ATCC 14990 by CLSI method relative to Linezolid. Format: functional.
Series [10] relates to Staphylococcus aureus. Kind of series: Antibacterial activity against Staphylococcus aureus ATCC 13709 Smith by CLSI method relative to Linezolid. Type of series: functional.

Values after ≈ are worked out from the molar mass of the structure shown.

CYP2C9, sequence (P11712 whole entry): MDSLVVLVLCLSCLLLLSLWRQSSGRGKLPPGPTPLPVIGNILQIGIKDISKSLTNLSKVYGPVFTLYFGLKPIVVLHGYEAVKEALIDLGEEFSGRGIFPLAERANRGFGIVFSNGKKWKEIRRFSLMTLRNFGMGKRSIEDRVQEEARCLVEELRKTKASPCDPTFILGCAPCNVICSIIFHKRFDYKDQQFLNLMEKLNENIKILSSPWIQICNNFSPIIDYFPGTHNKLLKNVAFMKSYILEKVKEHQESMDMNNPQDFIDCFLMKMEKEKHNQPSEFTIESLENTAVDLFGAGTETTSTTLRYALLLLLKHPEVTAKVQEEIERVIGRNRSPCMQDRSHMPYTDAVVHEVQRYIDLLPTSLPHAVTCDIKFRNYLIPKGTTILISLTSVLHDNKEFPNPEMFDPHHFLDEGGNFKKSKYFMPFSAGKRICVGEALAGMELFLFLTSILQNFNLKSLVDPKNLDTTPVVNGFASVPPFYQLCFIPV
CYP3A4, sequence (P08684 whole entry): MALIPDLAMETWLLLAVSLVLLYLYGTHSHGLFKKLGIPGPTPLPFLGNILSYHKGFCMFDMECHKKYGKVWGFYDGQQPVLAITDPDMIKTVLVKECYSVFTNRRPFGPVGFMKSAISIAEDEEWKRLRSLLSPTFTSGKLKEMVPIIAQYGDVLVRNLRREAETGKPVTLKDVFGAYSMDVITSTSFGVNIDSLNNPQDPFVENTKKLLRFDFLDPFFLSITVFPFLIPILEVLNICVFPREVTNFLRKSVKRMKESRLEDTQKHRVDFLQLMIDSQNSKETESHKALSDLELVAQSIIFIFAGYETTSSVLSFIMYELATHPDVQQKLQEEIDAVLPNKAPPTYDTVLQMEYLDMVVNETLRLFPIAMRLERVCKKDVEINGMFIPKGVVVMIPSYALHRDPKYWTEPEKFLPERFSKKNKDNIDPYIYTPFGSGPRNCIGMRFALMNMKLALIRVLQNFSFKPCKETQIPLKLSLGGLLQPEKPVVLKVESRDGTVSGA
CYP2C19, sequence (P33261 whole entry): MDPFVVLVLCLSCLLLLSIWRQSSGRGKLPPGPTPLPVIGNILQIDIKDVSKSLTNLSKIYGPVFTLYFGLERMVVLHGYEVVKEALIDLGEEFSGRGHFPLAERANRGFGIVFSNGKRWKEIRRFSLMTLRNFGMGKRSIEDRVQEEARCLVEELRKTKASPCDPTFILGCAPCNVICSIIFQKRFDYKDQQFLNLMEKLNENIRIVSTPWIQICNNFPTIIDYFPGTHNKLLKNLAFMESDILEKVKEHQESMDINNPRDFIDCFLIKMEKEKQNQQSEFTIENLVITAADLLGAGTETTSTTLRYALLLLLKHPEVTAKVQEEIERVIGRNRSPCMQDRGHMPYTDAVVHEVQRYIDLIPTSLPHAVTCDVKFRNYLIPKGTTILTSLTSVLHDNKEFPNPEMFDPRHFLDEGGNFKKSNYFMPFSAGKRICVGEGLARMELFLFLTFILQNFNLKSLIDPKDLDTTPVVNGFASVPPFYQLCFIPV
CYP2D6, sequence (P10635 whole entry): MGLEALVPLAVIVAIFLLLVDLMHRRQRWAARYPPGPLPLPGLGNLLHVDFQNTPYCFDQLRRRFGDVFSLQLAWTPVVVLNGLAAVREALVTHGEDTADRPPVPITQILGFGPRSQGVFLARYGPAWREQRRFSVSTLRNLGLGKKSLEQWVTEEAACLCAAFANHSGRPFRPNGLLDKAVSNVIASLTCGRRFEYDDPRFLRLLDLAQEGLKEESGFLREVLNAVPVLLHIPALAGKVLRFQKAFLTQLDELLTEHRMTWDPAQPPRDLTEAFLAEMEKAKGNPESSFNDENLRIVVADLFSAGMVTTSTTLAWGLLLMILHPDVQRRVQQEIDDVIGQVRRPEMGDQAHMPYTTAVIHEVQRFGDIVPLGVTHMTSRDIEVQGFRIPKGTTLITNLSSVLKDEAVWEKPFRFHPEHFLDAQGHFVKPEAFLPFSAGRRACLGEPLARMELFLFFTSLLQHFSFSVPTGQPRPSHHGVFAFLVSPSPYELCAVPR

For `CC(=O)NC[C@H]1CN(c2ccc(-c3cccc(-c4nnc5ncccn45)c3)c(F)c2)C(=O)O1`, the MIC in [1] stood at 4 µg/mL (≈ 8.96 µM); against Enterococcus faecalis it was 4 µg/mL (≈ 8.96 µM); in the series with Staphylococcus aureus [2], 4 µg/mL (≈ 8.96 µM); against Staphylococcus aureus [3], 1 µg/mL (≈ 2.24 µM).
In the case of `COc1ccc(-c2ccc(N3C[C@H](CNC(C)=O)OC3=O)cc2F)cc1-c1nnc2ncccn12`, the MIC was above 16 µg/mL in series [1], 16 µg/mL (≈ 33.6 µM) in the series on Enterococcus faecalis, 16 µg/mL (≈ 33.6 µM) in the series with Staphylococcus aureus [2] and 8 µg/mL (≈ 16.8 µM) against Staphylococcus aureus [3].
For `CC(=O)NC[C@H]1CN(c2ccc(-c3ccc(-c4nnc5ncccn45)nc3)c(F)c2)C(=O)O1`, the MIC in series [1] was 0.5 µg/mL (≈ 1.12 µM); in the series on Enterococcus faecalis, 0.5 µg/mL (≈ 1.12 µM); with Staphylococcus aureus [2], 0.25 µg/mL (≈ 0.559 µM); in the series with Staphylococcus aureus [3] it was 0.125 µg/mL (≈ 0.279 µM).
As for `CC(=O)NC[C@H]1CN(c2cccc(F)c2)C(=O)O1`, the MIC is 16 µg/mL (≈ 63.4 µM) in series [1], above 16 µg/mL against Enterococcus faecalis, above 16 µg/mL against Staphylococcus aureus [2] and 16 µg/mL (≈ 63.4 µM) with Staphylococcus aureus [3].
`CC(=O)NC[C@H]1CN(c2ccc(N3CCOCC3)c(F)c2)C(=O)O1` [LINEZOLID]: the MIC in series [1] amounted to 1 µg/mL (≈ 2.96 µM).
`CC(=O)NC[C@H]1CN(c2ccc(-c3ccc(-c4nnc5ncccn45)c(F)c3)c(F)c2)C(=O)O1`: the MIC worked out at 0.5 µg/mL (≈ 1.08 µM) in series [1], 0.5 µg/mL (≈ 1.08 µM) with Enterococcus faecalis, 0.5 µg/mL (≈ 1.08 µM) in the series with Staphylococcus aureus [2] and 0.125 µg/mL (≈ 0.269 µM) with Staphylococcus aureus [3].
Take `CC(=O)NC[C@H]1CN(c2ccc(-c3csc(-c4nnc5ncccn45)c3)c(F)c2)C(=O)O1`: the “fold change (FC)” value (in the series on Staphylococcus aureus [4]; with Streptococcus pneumoniae; in [5]; in the series on Staphylococcus aureus [6]; in the series on Staphylococcus aureus [7]; in the series on Staphylococcus aureus [8]) was 4 in each case. Further, the “fold change (FC)” value (in the series with Streptococcus pyogenes; with Enterococcus faecium; in series [9]; with Staphylococcus aureus [10]) was 4 each time. The inhibition at 10 µM at CYP2D6 came out at 5.6%; at CYP2C19, 36.2%; on CYP1A2, 4.3%; at CYP2C9, 40.9%; on CYP3A4, 37.7%. For the same compound, the MIC in series [1] amounted to 0.25 µg/mL (≈ 0.553 µM); in the series on Enterococcus faecalis it was 0.06 µg/mL (≈ 0.133 µM); with Staphylococcus aureus [2], 0.125 µg/mL (≈ 0.276 µM); against Staphylococcus aureus [3], 0.125 µg/mL (≈ 0.276 µM).

Usually MIC stands for the smallest concentration in the dilution series that meets the test's criterion for growth inhibition. A high value points to a need for much substance. Broadly, the inhibition is the relative decrease from the control value, in per cent.
